Calls of active or inactive are those of the source. No cut-off for these calls is given here.
Assays:
[1] = molecular target: T1, Cathepsin G (Homo sapiens, UniProt P08311); test: Inhibition of human cathepsin G using N-succinyl-Ala-Ala-Pro-Phe-p-nitroanilide as substrate measured for 180 mins by spectrophotometry
T1 sequence (P08311 whole entry): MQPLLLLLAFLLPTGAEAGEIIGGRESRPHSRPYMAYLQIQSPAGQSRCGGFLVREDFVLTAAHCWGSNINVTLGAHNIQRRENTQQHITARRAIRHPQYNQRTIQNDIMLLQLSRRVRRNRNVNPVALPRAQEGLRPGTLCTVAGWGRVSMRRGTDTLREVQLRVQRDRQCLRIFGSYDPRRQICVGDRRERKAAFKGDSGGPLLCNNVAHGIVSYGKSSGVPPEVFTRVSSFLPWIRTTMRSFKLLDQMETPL

[2] = tested on: Neutrophil; test: cells; settings: Homo sapiens
[3] = Inhibition of bovine pancreatic trypsin using Nalpha-benzoyl-L-arginine-7-amido-4-methylcoumarin; set-up: species or system Bos taurus
[4] = molecular target: T2, Myeloblastin (Homo sapiens, UniProt P24158); test: Inhibition of Pr3 (unknown origin) using t-butyloxycarbonyl-Ala-Ala-Nva-thiobenzyl ester as substrate measured for 180 mins by spectrophotometry
T2 sequence (P24158 whole entry): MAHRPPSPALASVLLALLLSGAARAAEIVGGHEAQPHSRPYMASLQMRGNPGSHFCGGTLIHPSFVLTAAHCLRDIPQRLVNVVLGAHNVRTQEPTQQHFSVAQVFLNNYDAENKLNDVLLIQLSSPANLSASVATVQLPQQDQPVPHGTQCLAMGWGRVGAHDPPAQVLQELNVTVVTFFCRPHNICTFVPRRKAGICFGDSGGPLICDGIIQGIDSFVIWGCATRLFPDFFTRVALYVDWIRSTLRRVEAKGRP

[5] = Inhibition of bovine pancreas chymotrypsin using N-succinyl-Ala-Ala-Pro-Phe-7-amido-4-methylcoumarin by spectrophotometry; set-up: species or system Bos taurus
[6] = molecular target: Prothrombin (Bos taurus, UniProt P00735); test: Inhibition of bovine plasma thrombin using Benzoyl-Phe-Val-Arg-7-amido-4-methylcoumarin hydrochloride by spectrophotometry
[7] = tested on: Mus musculus; test: Antiinflammatory activity in C57BL/6 mouse assessed as inhibition of LPS-induced edema compound treated 1 hr prior challenge at 100 mg/kg, ip measured up to 240 mins; format: functional, organism-based; set-up: dose 100 mg/kg
[8] = tested on: Mus musculus; test: Antiinflammatory activity in C57BL/6 mouse assessed as inhibition of human neutrophil elastase-induced edema compound treated 1 hr prior challenge at 100 mg/kg, ip measured up to 240 mins; format: functional, organism-based; set-up: dose 100 mg/kg
[9] = tested on: Mus musculus; test: Protection from LPS-induced acute lung injury in C57BL/6 mouse assessed as inhibition of MPO activity in lung tissue treated 1 hr prior challenge at 100 mg/kg, ip
[10] = tested on: Mus musculus; test: Protection from LPS-induced acute lung injury in C57BL/6 mouse assessed as inhibition of LPS-induced diffuse edematous changes treated 1 hr prior LPS challenge at 100 mg/kg, ip measured 6 hrs post LPS injection by hematoxylin and eosin staining method
[11] = molecular target: T3, Neutrophil elastase (Mus musculus, UniProt Q3UP87); test: Inhibition of recombinant mouse neutrophil elastase using methoxysuccinyl-Ala-Ala-Pro-Val-pnitroanilide as substrate preincubated for 15 mins before substrate addition measured after 90 mins by spectrophotometry
T3 sequence (Q3UP87 whole entry): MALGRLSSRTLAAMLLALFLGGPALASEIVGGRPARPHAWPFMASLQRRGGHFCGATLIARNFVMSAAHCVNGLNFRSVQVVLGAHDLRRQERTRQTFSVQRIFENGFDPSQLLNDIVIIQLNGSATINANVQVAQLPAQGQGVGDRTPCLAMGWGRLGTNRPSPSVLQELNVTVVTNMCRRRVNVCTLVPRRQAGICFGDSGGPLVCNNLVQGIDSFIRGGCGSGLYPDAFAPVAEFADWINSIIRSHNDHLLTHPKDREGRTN

[12] = tested on: Mus musculus; test: Protection from LPS-induced acute lung injury in C57BL/6 mouse assessed as inhibition of LPS-induced alveolar thickening treated 1 hr prior LPS challenge at 100 mg/kg, ip measured 6 hrs post LPS injection by hematoxylin and eosin staining method
[13] = tested on: Mus musculus; test: Protection from LPS-induced acute lung injury in C57BL/6 mouse assessed as inhibition of LPS-induced leukocyte infiltration treated 1 hr prior LPS challenge at 100 mg/kg, ip measured 6 hrs post LPS injection by hematoxylin and eosin staining method
[14] = molecular target: Pancreatic elastase (Sus scrofa, UniProt P08419+P00772); test: Inhibition of porcine pancreatic elastase using methoxysuccinyl-Ala-Ala-Pro-Val-p-nitroanilide as substrate preincubated for 15 mins before substrate addition measured after 60 mins by spectrophotometry; format: protein assay
[15] = tested on: Mus musculus; test: Protection from LPS-induced acute lung injury in C57BL/6 mouse assessed as inhibition of LPS-induced lung tissue destruction treated 1 hr prior LPS challenge at 100 mg/kg, ip measured 6 hrs post LPS injection by hematoxylin and eosin staining method
[16] = tested on: Mus musculus; test: Protection from LPS-induced acute lung injury in C57BL/6 mouse assessed as inhibition of leukocyte infiltration in lung treated 1 hr prior challenge at 100 mg/kg, ip
[17] = molecular target: T4, Neutrophil elastase (Homo sapiens, UniProt P08246); test: Inhibition of human neutrophil elastase measured for 30 mins by spectrophotometry
T4 sequence (P08246 whole entry): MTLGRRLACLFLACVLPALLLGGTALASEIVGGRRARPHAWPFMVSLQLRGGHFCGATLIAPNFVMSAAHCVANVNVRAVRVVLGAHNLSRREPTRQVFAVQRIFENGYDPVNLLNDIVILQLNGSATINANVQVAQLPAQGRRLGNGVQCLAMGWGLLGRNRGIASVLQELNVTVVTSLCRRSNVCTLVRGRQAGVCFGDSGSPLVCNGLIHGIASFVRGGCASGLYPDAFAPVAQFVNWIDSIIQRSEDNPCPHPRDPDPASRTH

[18] = tested on: Neutrophil; test: cells; settings: Homo sapiens; remark: listed apart in the source
[19] = tested on: Mus musculus; test: Toxicity in C57BL/6 mouse assessed as effect on lung structure at 100 mg/kg, ip by hematoxylin and eosin staining method; format: organism-based; set-up: dose 100 mg/kg, route intraperitoneal; settings: in vivo
[20] = tested on: Mus musculus; test: Antiinflammatory activity in C57BL/6 mouse assessed as inhibition of human neutrophil elastase-induced edema compound treated ip 1 hr prior challenge measured up to 240 mins post dose; format: functional, organism-based
[21] = tested on: Mus musculus; test: Antiinflammatory activity in C57BL/6 mouse assessed as inhibition of human neutrophil elastase-induced edema compound treated 1 hr prior challenge at 50 to 100 mg/kg, ip; format: functional, organism-based; settings: TDE = time-dependent effect
[22] = tested on: Mus musculus; test: Toxicity in C57BL/6 mouse assessed as effect on pulmonary alveoli at 100 mg/kg, ip by hematoxylin and eosin staining method; format: organism-based; set-up: dose 100 mg/kg, route intraperitoneal; settings: in vivo

| Structure (SMILES) | IC50 [1] [µM] | IC50 [2] [µM] | IC50 [17] [nM] | IC50 [18] [nM] | further results |
| --- | --- | --- | --- | --- | --- |
| CCC(=O)c1ccccc1NS(=O)(=O)c1ccc(OC(=O)C(C)(C)C)cc1 | > 10 | > 20 | 190 |  |  |
| CCCOC(=O)c1ccccc1NC(=O)c1ccc(OC(=O)C(C)(C)C(F)(F)F)cc1 | > 10 | > 20 | > 10000 | > 20000 | IC50 [4]: > 10 µM |
| CC(C)(C)C(=O)Oc1ccc(S(=O)(=O)Nc2ccccc2/C=N\O)cc1 | > 10 | > 20 |  |  |  |
| CC(C)(C)C(=O)Oc1ccc(S(=O)(=O)Nc2ccccc2C(=O)NCCO)cc1 | > 10 | > 20 | 130 | 50 |  |
| CO/N=C(/C)c1ccccc1NS(=O)(=O)c1ccc(OC(=O)C(C)(C)C)cc1 | > 10 | > 20 |  |  |  |
| CC(C)(C)[S+]([O-])Nc1ccc(S(=O)(=O)Nc2ccccc2C=O)cc1 (centres undefined) | > 10 | > 20 | > 10000 | 9410 | IC50 [4]: > 10 µM |
| COC(=O)c1ccccc1NC(=O)c1ccc(OC(=O)C(C)(C)C)cc1 | > 10 | > 20 | 820 | 550 |  |
| CC(C)(C)C(=O)Oc1ccc(S(=O)(=O)Nc2ccccc2C(=O)OCCO)cc1 | > 10 | > 20 | 290 | 50 |  |
| CC(C)(C)C(=O)Oc1ccc(S(=O)(=O)Nc2ccccc2C=O)cc1 | > 10 | > 20 | 120 | 50 |  |
| COC(=O)c1ccccc1NS(=O)(=O)c1ccc(OC(=O)C(C)(C)C(F)(F)F)cc1 | > 10 |  |  | 4940 |  |
| CCCC(=O)c1ccccc1NS(=O)(=O)c1ccc(OC(=O)C(C)(C)C)cc1 | > 10 | > 20 | 370 |  |  |
| CO/N=C(\C)c1ccccc1NS(=O)(=O)c1ccc(OC(=O)C(C)(C)C)cc1 | > 10 | > 20 |  |  |  |

Further lines, with some results ahead:

| IC50 [1] [µM] | IC50 [2] [µM] | IC50 [17] [nM] | IC50 [18] [nM] | Structure (SMILES) | further results |
| --- | --- | --- | --- | --- | --- |
| > 10 | 13.4 |  |  | CC/C(=N/O)c1ccccc1NS(=O)(=O)c1ccc(OC(=O)C(C)(C)C)cc1 |  |
| > 10 | > 20 |  |  | CC(C)(C)C(=O)Oc1ccc(S(=O)(=O)Nc2ccccc2C(=O)NCC(=O)O)cc1 | IC50 [3]: > 10 µM; IC50 [4]: 0.34 µM; IC50 [5]: 1950 nM; IC50 [6]: > 10 µM; inhibition [7]: Active; inhibition [8]: Active; inhibition [9]: Active; inhibition [10]: Active; IC50 [11]: 145 nM; inhibition [12]: Active; inhibition [13]: Active; IC50 [14]: 2185.17 nM; inhibition [15]: Active; inhibition [16]: Active |
| > 10 | > 20 | > 10000 | > 20000 | COC(=O)c1ccccc1NC(=O)c1ccc(OC(=O)C(C)(C)C(F)(F)F)cc1 | IC50 [4]: > 10 µM |
| > 10 | > 20 |  |  | CCC/C(=N/O)c1ccccc1NS(=O)(=O)c1ccc(OC(=O)C(C)(C)C)cc1 |  |
| > 10 | > 20 | > 10000 | 13800 | CCOC(=O)c1ccccc1NC(=O)c1ccc(OC(=O)C(C)(C)C(F)(F)F)cc1 | IC50 [4]: > 10 µM |
| > 10 | > 20 | 480 | 300 | CCOC(=O)c1ccccc1NC(=O)c1ccc(OC(=O)C(C)(C)C)cc1 |  |
| > 10 | > 20 | 110 | 90 | CC(=O)c1ccccc1NS(=O)(=O)c1ccc(OC(=O)C(C)(C)C)cc1 |  |
| > 10 | > 20 | 2240 | 110 | CCCCC(=O)c1ccccc1NS(=O)(=O)c1ccc(OC(=O)C(C)(C)C)cc1 |  |
| > 10 | > 20 | 1230 | 620 | CCCOC(=O)c1ccccc1NC(=O)c1ccc(OC(=O)C(C)(C)C)cc1 |  |
| > 10 | > 20 | > 10000 | 13600 | COC(=O)c1ccccc1NS(=O)(=O)c1ccc(NC(=O)C(C)(C)C)cc1 | IC50 [4]: > 10 µM |
| > 10 | 19.6 |  |  | C/C(=N/O)c1ccccc1NS(=O)(=O)c1ccc(OC(=O)C(C)(C)C)cc1 | IC50 [3]: > 10 µM; IC50 [5]: 594 nM; IC50 [6]: > 10 µM; Activity [19]: Non-toxic; inhibition [7]: Active; inhibition [20]: Dose-dependent effect; inhibition [9]: Active; inhibition [10]: Active; IC50 [11]: 191 nM; inhibition [12]: Active; inhibition [13]: Active; IC50 [14]: 1881.98 nM; inhibition [15]: Active; inhibition [21]: tde; Activity [22]: Non-toxic; inhibition [16]: Active |
